The subject of one experiment is NCI-H1417 cells. Briefly: Experiment 2: inhibition of NCI-H1417 cell proliferation (CellTiter-Glo, 10 days). Type of experiment: cell-based. Conditions: Homo sapiens, 240 h, 10 days incubation. As to the method: Experiment 2: Evaluation of Inhibitory Activity on NCI-H1417 Cell Proliferation
Experimental purpose: To test the inhibitory activity of test compounds on NCI-H1417 cell proliferation.
Experimental materials: RPMI 1640 medium, fetal bovine serum, Promega CellTiter-Glo reagent. The NCI-H1417 cell line was purchased from ATCC. Envision multilabel plate reader (PerkinElmer).
Experimental method: The compounds were dissolved to 10 mM and 5-fold diluted with DMSO in the compound plates, starting with a concentration of 2 mM. 3-fold serial dilution was performed with Bravo to 10 concentrations. Then 250 nL of the compound solution was transferred to the upper and lower double duplicate wells of a blank 384 cell plate with Echo. To each well containing the transferred 250 nL of DMSO/compound was added a cell suspension of 1000 cells/50 μL per well, and the compound was diluted 200-fold, i.e., resulting in an initial working concentration of 10 μM. The cell plate was incubated in a carbon dioxide incubator for 10 days. To the cell plate was added 25 μL of Promega CellTiter-Glo reagent per well and the mixture was shaken for 10 minutes at room temperature to stabilize the luminescence signal. Readings were performed on a PerkinElmer Envision multilabel plate reader.
Data analysis: Raw data were converted into inhibition rate using the formula: (Max−Ratio)/(Max−Min)*100%. The IC50 values could then be derived from four-parameter curve fitting. (derived from 205 mode in XLFIT5, iDBS)
The compounds were tested for inhibitory activity of compounds on NCI-H1417 cell proliferation, and the results are shown in Table 3.
(In general: ATP-based viability assays read luminescence as a measure of living cells.)

Experiment [1] deals with hERG potassium ion channels (Homo sapiens (Human), UniProt Q12809). Briefly: Experiment 4: hERG potassium ion channel inhibition, automated patch clamp (Qpatch), CHO-hERG cells. It counts as cell-based. Conditions: highest test concentration 40 μM. As to the method: Experiment 4: hERG Potassium Ion Channel Inhibition Assay
Experimental purpose: To test the effects of the test examples on hERG potassium ion channels using an automated patch clamp method.
4.1.1 CHO-hERG cells were cultured in a 175 cm^2 culture flask. When the cell density grew from 60% to 80%, the culture medium was removed. The cells were washed once with 7 mL of PBS (Phosphate Buffered Saline), and then 3 mL of Detachin cell dissociation reagent was added thereto for digestion.
4.1.2 After the digestion was completed, 7 mL of culture medium was added thereto for neutralization, then the mixture was centrifuged, the supernatant was aspirated, and then 5 mL of culture medium was added thereto for resuspension to ensure a cell density of 2×10^6/mL to 5×10^6/ML.
The single-cell high-resistance sealing and whole-cell modeling formation processes were all automatically completed by the Qpatch instrument of the Shanghai Institute of Materia Medica, Chinese Academy of Sciences. After obtaining the whole-cell recording modeling, the cells were clamped at −80 mV, and before a 5-second +40 mV depolarizing stimulus was given, a 50-millisecond −50 mV prepulse was first given, then the voltage was repolarized to −50 mV and holden for 5 seconds, and finally returned to −80 mV. This voltage stimulus was applied every 15 seconds, recorded for 2 minutes, and then the extracellular fluid was recorded for 5 minutes, and then the administration process was initiated, with compound concentrations starting at the lowest test concentration. The voltage stimulus was given for 2.5 minutes for each test concentration, and after all concentrations had been continuously given, 3 μM the positive control compound, Cisapride, was given. At least 3 cells were tested per concentration (n≥3).
4.4.1 The compound stock solution was diluted with DMSO, and 20 μL of DMSO solution was added with 10 μL of the compound stock solution, and serially diluted 3-fold to 6 DMSO concentrations.
4.4.2 4 μL of 6 DMSO concentrations of compounds were taken respectively and added to 396 μL of extracellular fluid, and the mixture was diluted 100-fold to 6 intermediate concentrations, then 80 μL of 6 intermediate concentrations of compounds was taken and added to 320 μL of extracellular fluid, and the mixture was diluted 5-fold to the final test concentration.
4.4.3 The highest test concentration was 40 μM, and the concentrations were respectively 40, 13.3, 4.4, 1.48, 0.494, and 0.165 μM for a total of six concentrations.
4.4.5 The preparation of the compound was completed by the Bravo instrument throughout the dilution process.
Experimental data were analyzed by GraphPad Prism 5.0 software.
(In general: hERG is a cardiac potassium channel; its block is linked to QT prolongation.)

The target of a further experiment is human LSD1 (Homo sapiens (Human), UniProt O60341). Briefly: Experiment 1B: in vitro LSD1 enzyme activity, enzyme-coupled fluorescence (HRP/Amplex Red), H3(1-21)K4me2 peptide 10 μM (Reaction Biology). Type of experiment: biochemical. Conditions: histone H3(1-21)K4me2 peptide 10 μM. As to the method: Experiment 1B: Evaluation of Enzyme Activity
Testing unit: Reaction Biology Corp., USA.
The purpose of the assay was to test the in vitro inhibitory activity of the compounds against LSD1. The enzyme used in the assay was human LSD1, and the standard substrate was histone H3(1-21)K4me2 peptide (10 μM). The activity of the compounds was determined by the enzyme-coupling fluorescent method by the combined detection of H2O2 generated after the reaction of LSD1 by horseradish peroxidase (HRP) and the fluorescent reagent Amplex Red. Starting from 10 μM, the compounds were 3-fold diluted to detect the IC50 values of the compounds at 10 concentrations. The enzyme and substrate were incubated for 30 minutes before the compound was added to the substrate to start the reaction. Fluorescence detector: EnVision, excitation wavelength: Ex/Em=535/590 nM.

Counter-ions that a name gives are not always drawn.

In general, IC50 refers to the concentration that gives 50% inhibition. Read a high IC50 as weaker potency.

hERG potassium ion channels, sequence (Q12809 whole entry): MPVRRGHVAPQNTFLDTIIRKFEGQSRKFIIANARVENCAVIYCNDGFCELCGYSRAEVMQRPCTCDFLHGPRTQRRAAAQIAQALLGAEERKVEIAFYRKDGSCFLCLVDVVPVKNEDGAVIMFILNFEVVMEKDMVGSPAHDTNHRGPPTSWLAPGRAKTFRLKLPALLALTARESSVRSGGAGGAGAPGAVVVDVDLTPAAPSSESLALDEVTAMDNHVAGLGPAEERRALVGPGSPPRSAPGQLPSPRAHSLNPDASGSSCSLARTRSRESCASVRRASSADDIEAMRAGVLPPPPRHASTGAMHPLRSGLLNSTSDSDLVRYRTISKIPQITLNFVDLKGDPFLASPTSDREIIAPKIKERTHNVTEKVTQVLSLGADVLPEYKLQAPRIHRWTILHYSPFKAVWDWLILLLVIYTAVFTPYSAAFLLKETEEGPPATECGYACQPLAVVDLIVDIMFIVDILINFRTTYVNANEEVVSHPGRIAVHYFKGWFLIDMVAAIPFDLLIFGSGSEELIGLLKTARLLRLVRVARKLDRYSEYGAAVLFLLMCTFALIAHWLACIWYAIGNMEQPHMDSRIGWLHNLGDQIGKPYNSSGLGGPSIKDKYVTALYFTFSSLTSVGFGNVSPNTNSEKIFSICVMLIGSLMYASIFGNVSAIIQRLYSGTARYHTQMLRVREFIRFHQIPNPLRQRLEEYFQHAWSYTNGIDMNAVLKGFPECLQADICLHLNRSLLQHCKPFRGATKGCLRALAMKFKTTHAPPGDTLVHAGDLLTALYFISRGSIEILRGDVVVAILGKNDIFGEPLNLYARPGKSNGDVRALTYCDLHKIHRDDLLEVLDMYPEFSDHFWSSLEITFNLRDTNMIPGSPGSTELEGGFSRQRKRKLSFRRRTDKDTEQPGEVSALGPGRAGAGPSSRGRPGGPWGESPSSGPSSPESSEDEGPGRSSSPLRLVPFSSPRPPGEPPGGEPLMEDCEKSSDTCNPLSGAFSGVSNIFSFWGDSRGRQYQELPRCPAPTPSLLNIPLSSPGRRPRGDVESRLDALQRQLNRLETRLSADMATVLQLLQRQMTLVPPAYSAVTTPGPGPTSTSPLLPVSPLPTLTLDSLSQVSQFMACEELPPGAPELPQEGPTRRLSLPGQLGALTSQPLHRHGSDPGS

Turning to `N#Cc1ccc(-c2cc(C(=O)N3CCC[C@@H](N)C3)sc2-c2ccc3nn(C4CC(O)C4)cc3c2)cc1F` (some centres unmarked) [Hydrochloride of compound 73], the IC50 in the experiment on NCI-H1417 cells was 14.5 nM; in experiment [1], more than 40000 nM; against human LSD1, 11.8 nM.
Take `N#Cc1ccc(-c2cc(C(=O)N3CCC[C@@H](N)C3)sc2-c2cnc(N)nc2)cc1F` [Hydrochloride of compound 45]: the IC50 in experiment [1] amounted to 32600 nM.
`N#Cc1ccc(-c2cc(C(=O)N3CCC[C@@H](N)C3)sc2-c2ccc3c(cnn3CC(O)CO)c2)cc1F` (some centres unmarked) [Hydrochloride of compound 62]: the IC50 with NCI-H1417 cells was 11.2 nM; in experiment [1], more than 40000 nM; at human LSD1, 30.1 nM.
For `CC(C)(O)Cn1nnc2cc(-c3sc(C(=O)N4C5CCC4C(N)C5)cc3-c3ccc(C#N)c(F)c3)ccc21` (centres unmarked) [Hydrochloride of compound 16] the same measures were 0.17 nM, more than 40000 nM and 7.51 nM.
In the case of `N#Cc1ccc(-c2cc(C(=O)N3CCC[C@@H](N)C3)sc2-c2ccc3oncc3c2)cc1F` [Compound 77], the IC50 in experiment [1] is more than 40000 nM.
The same measure, in the same setting: to `CC1(O)CN(C(=O)c2ccc(-c3sc(C(=O)N4CCC[C@@H](N)C4)cc3-c3ccc(C#N)c(F)c3)cc2)C1` [Compound 81] belongs more than 40000 nM.
With `Cn1cc2cc(-c3sc(C(=O)N4CCC[C@@H](N)C4)cc3-c3ccc(C#N)c(F)c3)cnc2n1` [Hydrochloride of compound 56], the IC50 is 56.8 nM with NCI-H1417 cells, more than 40000 nM in experiment [1] and 109 nM against human LSD1.
`CC(C)(O)Cn1cc2cc(-c3sc(C(=O)N4CCC[C@@H](N)C4)cc3-c3ccc(C#N)c(F)c3)cnc2n1` [Compound 61] yielded an IC50 in experiment [1] of more than 40000 nM.
Consider `N#Cc1ccc(-c2cc(C(=O)N3CCC[C@@H](N)C3)sc2-c2ccc3nn(CC4(O)CC4)cc3c2)cc1F` [Hydrochloride of compound 89], for which the values for the IC50 (with NCI-H1417 cells; in experiment [1]; against human LSD1) were 1.61 nM, 22700 nM and 15.2 nM, respectively.
For `N#Cc1ccc(-c2cc(C(=O)N3CCC[C@@H](N)C3)sc2-c2ccc3c(c2)nnn3[C@H]2COCC[C@@H]2O)cc1F` [Hydrochloride of compound 90] the same measures were 37.6 nM, more than 40000 nM and 37.3 nM.
The matching figures for `N#Cc1ccc(-c2cc(C(=O)N3CCC[C@@H](N)C3)sc2-c2ccc(OCC(O)CO)c(F)c2)cc1F` (some centres unmarked) [Hydrochloride of compound 54]: 5.11 nM, more than 40000 nM and 49.9 nM.
With `N#Cc1ccc(-c2cc(C(=O)N3CCC[C@@H](N)C3)sc2-c2ccc3nn([C@H]4COCC[C@@H]4O)cc3c2)cc1F` [Hydrochloride of compound 88], the IC50 with NCI-H1417 cells worked out at 39.4 nM; in experiment [1] it was 21900 nM; against human LSD1, 87.6 nM.
For `CC(C)(O)Cn1nnc2cc(-c3sc(C(=O)N4CCCNCC4)cc3-c3ccc(C#N)c(F)c3)c(F)c(F)c21` [Hydrochloride of compound 111], the values for the IC50 (with NCI-H1417 cells; in experiment [1]; against human LSD1) were 2.12 nM, 21500 nM and 17.6 nM, respectively.
For `N#Cc1ccc(-c2cc(C(=O)N3CCC[C@@H](N)C3)sc2-c2cc3cn([C@H]4COCC[C@@H]4O)nc3cc2F)cc1F` [Hydrochloride of compound 94] the same measures were 32.8 nM, more than 40000 nM and 98.4 nM.
Consider `N#Cc1ccc(-c2cc(C(=O)N3CCC[C@@H](N)C3)sc2-c2ccc3c(c2)CNC3=O)cc1F` [Hydrochloride of compound 46], for which the IC50 with NCI-H1417 cells is 19.4 nM; in experiment [1], more than 40000 nM; at human LSD1 it was 81.3 nM.
Consider `N#Cc1ccc(-c2cc(C(=O)N3CCC[C@@H](N)C3)sc2-c2ccn3cnnc3c2)cc1F` [Compound 76], for which, in experiment [1], the IC50 is more than 40000 nM.
Consider `CC(C)(O)CN1Cc2cc(-c3sc(C(=O)N4CCC[C@@H](N)C4)cc3-c3ccc(C#N)c(F)c3)ccc2C1=O` [Compound 59], for which the IC50 is 13.2 nM in the experiment on NCI-H1417 cells, more than 40000 nM in experiment [1] and 43.1 nM against human LSD1.
For `CC(C)(O)Cn1nnc2cc(-c3sc(C(=O)N4CCC[C@@H](N)C4)cc3-c3ccc(C#N)c(F)c3)c(F)c(F)c21` [Hydrochloride of compound 91] the same measures were 0.83 nM, more than 40000 nM and 13 nM.
Consider `Cn1cc(-c2sc(C(=O)N3CCC[C@@H](N)C3)cc2-c2ccc(C#N)c(F)c2)ccc1=O` [Hydrochloride of compound 32], for which, in experiment [1], the IC50 was more than 40000 nM.
In experiment [1], `N#Cc1ccc(-c2cc(C(=O)N3CCC[C@@H](N)C3)sc2-c2ccc3nncn3c2)cc1F` [Compound 67] registered an IC50 of more than 40000 nM.
For `N#Cc1ccc(-c2cc(C(=O)N3CCC[C@@H](N)C3)sc2-c2ccc3c(c2)nnn3CC2(O)CCC2)cc1F` [Hydrochloride of compound 82], the results for the IC50 (in the experiment with NCI-H1417 cells; in experiment [1]; against human LSD1) were 1.73 nM, 14900 nM and 3.01 nM, respectively.
`N#Cc1ccc(-c2cc(C(=O)N3CCC[C@@H](N)C3)sc2-c2ccc3nn(C4COC4)cc3c2)cc1F` [Compound 70]: the IC50 in the experiment on NCI-H1417 cells is 9.88 nM; in experiment [1], 18700 nM.
For the molecule `N#Cc1ccc(-c2cc(C(=O)N3CCC[C@@H](N)C3)sc2-c2ccc(OCC(=O)O)c(F)c2)cc1F` [Hydrochloride of compound 30], the 50% inhibitory concentration (IC50) in experiment [1] was more than 40000 nM; against human LSD1 it was 122 nM.
Take `CC1(O)CC(n2cc3cc(-c4sc(C(=O)N5CCC[C@@H](N)C5)cc4-c4ccc(C#N)c(F)c4)ccc3n2)C1` (some centres unmarked) [Hydrochloride of compound 86]: the values for the IC50 (in the experiment with NCI-H1417 cells; in experiment [1]; at human LSD1) were 10.3 nM, 21000 nM and 16 nM, respectively.

For the origin of these results see US20240199571A1, “THIOPHENE COMPOUND AND APPLICATION THEREOF” (MEDSHINE DISCOVERY INC., priority 2021, published 2024).
